Target: T1, Renin (Homo sapiens, UniProt P00797)
T1 sequence (P00797 whole entry): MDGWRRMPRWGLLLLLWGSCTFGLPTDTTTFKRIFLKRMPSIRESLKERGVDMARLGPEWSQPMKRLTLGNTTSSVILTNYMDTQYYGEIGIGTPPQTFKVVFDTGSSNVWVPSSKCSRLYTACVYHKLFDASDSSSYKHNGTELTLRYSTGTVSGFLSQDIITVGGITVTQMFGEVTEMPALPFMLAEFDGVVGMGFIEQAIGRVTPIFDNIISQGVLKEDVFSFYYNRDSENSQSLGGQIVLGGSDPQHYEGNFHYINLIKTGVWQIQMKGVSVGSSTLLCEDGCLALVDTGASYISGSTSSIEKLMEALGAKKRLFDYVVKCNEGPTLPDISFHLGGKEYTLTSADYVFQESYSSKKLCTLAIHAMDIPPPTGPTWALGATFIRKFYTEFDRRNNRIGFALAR
Assay: In vitro inhibitory activity against monkey plasma renin
Type: cell-free, Cercopithecidae
Conditions: target entry is the homologue from another species

Compound	IC50 [nM]
C=CC[C@H](NC(=O)[C@H]1Cc2ccccc2CN1)C(=O)N[C@@H](CC1CCCCC1)[C@@H](O)[C@@H](O)CC(C)C	373
CC(C)C[C@H](O)[C@H](O)[C@H](CC1CCCCC1)NC(=O)CNC(=O)[C@@H]1Cc2ccccc2CN1S(=O)(=O)N1CCOCC1	101
C=CC[C@H](NC(=O)[C@@H]1Cc2ccccc2CN1)C(=O)N[C@@H](CC1CCCCC1)[C@@H](O)[C@@H](O)CC(C)C	11.5
CC(C)C[C@H](O)[C@H](O)[C@H](CC1CCCCC1)NC(=O)CNC(=O)[C@H](Cc1ccccc1)NS(=O)(=O)N1CCOCC1	3.6
C=CC[C@H](NC(=O)[C@@H]1Cc2ccccc2CN1C(=O)OC(C)(C)C)C(=O)N[C@@H](CC1CCCCC1)[C@@H](O)[C@@H](O)CC(C)C	146
C=CC[C@H](NC(=O)[C@@H]1Cc2ccccc2CN1S(=O)(=O)N1CCOCC1)C(=O)N[C@@H](CC1CCCCC1)[C@@H](O)[C@@H](O)CC(C)C	2.89
C=CC[C@H](NC(=O)[C@H](Cc1ccccc1)NC(=O)OC(C)(C)C)C(=O)N[C@@H](CC1CCCCC1)[C@@H](O)[C@@H](O)CC(C)C	0.42
C=CC[C@H](NC(=O)[C@H]1Cc2ccccc2CN1C(=O)OC(C)(C)C)C(=O)N[C@@H](CC1CCCCC1)[C@@H](O)[C@@H](O)CC(C)C	325

Target: T2, Renin (Homo sapiens) (UniProt P00797)
T2 sequence (whole entry): T1 sequence (P00797 whole entry)
Assay: In vitro inhibitory activity against monkey plasma renin was determined at 10e-6 M
Type: cell-free
Conditions: Cercopithecidae, target entry is the homologue from another species

Compound	inhibition [%]
CC(C)C[C@H](O)[C@H](O)[C@H](CC1CCCCC1)NC(=O)CCC(=O)[C@@H]1Cc2ccccc2CN1C(=O)OC(C)(C)C	9.8
CC(C)C[C@H](O)[C@H](O)[C@H](CC1CCCCC1)NC(=O)CNC(=O)[C@@H]1Cc2ccccc2CN1C(=O)OC(C)(C)C	11.9
CC(C)C[C@H](O)[C@H](O)[C@H](CC1CCCCC1)NC(=O)CCC(O)[C@@H]1Cc2ccccc2CN1C(=O)OC(C)(C)C (stereo partly specified)	0

— ChEMBL document CHEMBL1127956, “Tetrahydroisoquinoline as a phenylalanine replacement in renin inhibitors” (Bioorg Med Chem Lett, 1994)
